The record followed here is patent publication US8278337B2, “Substituted pyridines that are JNK inhibitors” (Merck Sharp & Dohme, priority 2006, dated 2012).

Molecules are shown by their SMILES. “And” between values parts separate entries of the source, which are not always exact repeats. Identical values can stand only once.

JNK1, sequence (P45983 whole entry, species assumed): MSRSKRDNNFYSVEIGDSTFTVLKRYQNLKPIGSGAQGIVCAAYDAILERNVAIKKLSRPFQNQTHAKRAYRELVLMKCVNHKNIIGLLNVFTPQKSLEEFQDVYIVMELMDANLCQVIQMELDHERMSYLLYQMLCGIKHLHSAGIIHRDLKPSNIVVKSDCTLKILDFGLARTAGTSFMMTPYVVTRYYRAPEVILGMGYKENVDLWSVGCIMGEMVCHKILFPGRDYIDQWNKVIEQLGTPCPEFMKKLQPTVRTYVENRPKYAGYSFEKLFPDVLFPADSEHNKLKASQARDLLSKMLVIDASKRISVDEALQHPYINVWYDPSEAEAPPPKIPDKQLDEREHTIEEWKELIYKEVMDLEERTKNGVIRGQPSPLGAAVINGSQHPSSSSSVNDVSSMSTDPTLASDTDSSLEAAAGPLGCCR

The test concerns the target JNK1 (Homo sapiens, UniProt P45983). As to the kind of experiment: DELFIA kinase assay, JNK1. In kind it is biochemical. Conditions: DELFIA, biotinylated GST-ATF2 substrate, 10 minute pre-incubation, final ATP 7 uM. As for the experimental part:
Assay DELFIA (Dissociation Enhanced Lanthanide Fluorescence Immuno-Assay) Assay:
Before initiation of kinase reactions, compounds were pre-incubated with the enzyme for 10 minutes. Pre-incubation reactions contained 50 mM HEPES pH 7.3, 10 mM MgCl2, 1 mM DTT, 75 mM NaCl, 1 mM EDTA, 1 mM EGTA, 0.01% CHAPS, 2 nM JNK1, 6 ug/mL biotinylated GST-ATF2, 0.1 mg/ml BSA, 5% DMSO and 0-100 μM compound in a total volume of 40 μL. After a 10 minute room temperature pre-incubation, 10 μL of 35 μM ATP was added to start the reaction (final concentration of ATP=7 uM). Reactions were incubated at room temperature for 30 minutes. A small aliquot (10 uL) was taken and quenched by adding into 190 uL of DELFIA Assay buffer containing 100 mM EDTA. The amount of phosphate transferred to biotinylated GST-ATF2 was measured using the Dissociation Enhanced Lanthanide Fluorescence Immuno-assay (DELFIA) from Perkin Elmer according to manufacturers protocol. Briefly, biotinylated GST-ATF2 was captured on streptavidin coated plates for 1 hour, washed twice, then incubated for 1 hour with a 1:1000 dilution of rabbit-anti-phospho-ATF2 antibody and a 1:3500 dilution of Europium-labeled anti-rabbit secondary antibody. Free antibody was removed with six washes, Europium was dissociated from the antibody, and Europium fluorescence was measured using an excitation wavelength of 340 nm and an emission wavelength of 615 nm. JNK2 and JNK3 kinase reactions were carried out similarly, with the exception that the final concentration of ATP was 4 uM and 2 uM, respectively.
A word on the IC50: it is the concentration that inhibits the measured activity by half. In turn, `CS(=O)(=O)c1ccc(CNC(=O)c2cccc(C(=O)NC3CCN(c4ccc5ccccc5n4)CC3)n2)cc1` [Compound 276] gave an IC50 of over 1000 nM.
Consider `CC(C)NC(=O)c1cccc(C(=O)NCc2ccnn2-c2ccc(S(C)(=O)=O)cc2)n1` [Compound 310], for which the IC50 was > 1000 nM and 1030 to 10000 nM.
Consider `CCOC(=O)N1CCC(NC(=O)c2cccc(NC(C)=O)n2)CC1` [Compound 399], for which the IC50 is > 1000 nM and 1030 to 10000 nM.
On to `CC(C)NC(=O)c1cccc(C(=O)NCc2cn[nH]c2)n1` [Compound 119], for which the IC50 was > 1000 nM and 1030 to 10000 nM.
The compound `CCOC(=O)N1CCC(NC(=O)c2cccc(C(=O)NCc3ccc(S(C)(=O)=O)cc3)c2)CC1` [Compound 371] gave an IC50 of over 1000 nM.
On to `CS(=O)(=O)c1ccc(CNC(=O)c2cccc(-c3ccc4c(c3)OCO4)n2)cc1` [Compound 332], for which the IC50 is 102 to 959 nM.
With `CC(C)NC(=O)c1cccc(C(=O)NCc2ccc(S(C)(=O)=O)cc2)n1` [Compound 88], the IC50 was in the range of 102 to 959 nM.
For the compound `Cc1ccc(-n2cc(CNC(=O)c3cccc(C(=O)NC(C)C)n3)cn2)cc1` [Compound 130], the IC50 is 4 to 19 nM and 4 to 97 nM.
As for `CC(C)NC(=O)c1cccc(C(=O)NCc2cccc(-c3cccc(S(C)(=O)=O)c3)c2)n1` [Compound 191], the IC50 fell in the range of 4 to 97 nM.
The compound `Nc1nc2ccc(CNC(=O)c3cccc(C(=O)O)n3)cc2s1` [Compound 46] had an IC50 of over 1000 nM.
Consider `CC(C)NC(=O)c1cccc(C(=O)NCc2cccc(-c3ccccc3)c2)n1` [Compound 125], for which the IC50 is 4 to 97 nM.
To `Cc1cccc(-n2cc(CNC(=O)c3cccc(C(=O)NC(C)C)n3)cn2)c1` [Compound 129] belongs 4 to 97 nM and 4 to 19 nM; to `COc1cccc(C(=O)NCc2ccc3nc(N)sc3c2)n1` [Compound 267], over 1000 nM.
Compound `CC(C)C[C@@H](CO)NC(=O)c1cccc(C(=O)NCc2ccc3nc(N)sc3c2)n1` [Compound 20] yielded an IC50 of over 1000 nM.
To `CC(C)NC(=O)c1cccc(C(=O)NCC2CCN(c3cccc(S(C)(=O)=O)c3)CC2)n1` [Compound 421] belongs > 1000 nM and 1030 to 10000 nM.
On to `CC(C)NC(=O)c1cccc(C(=O)NCc2nc3ccccc3s2)n1` [Compound 85], for which the IC50 lay in the range of 4 to 97 nM.
The compound `Cc1cccc(-c2ccc(CNC(=O)c3cccc(C(=O)NC(C)C)n3)cn2)c1` [Compound 174] had an IC50 of 102 to 959 nM.
Compound `Nc1nc2ccc(CNC(=O)c3cccc(C(=O)NC4CCC4)n3)cc2s1` [Compound 11] showed an IC50 of 4 to 97 nM.
In the case of `Nc1nc2ccc(CNC(=O)c3cccc(C(=O)N[C@H](CO)Cc4ccccc4)n3)cc2s1` [Compound 23], the IC50 was 102 to 959 nM.
Take `CC(C)NC(=O)c1cccc(C(=O)NCc2cccc(Cl)c2)n1` [Compound 96]: the half-maximal inhibitory concentration (IC50) lay in the range of 102 to 959 nM.
Compound `CCOC(=O)N1CCC(NC(=O)c2cccc(NCc3cccnc3)n2)CC1` [Compound 391] displayed an IC50 of over 1000 nM.
Compound `CC(C)NC(=O)c1cccc(C(=O)N[C@H](C)c2ccc(O)cc2)n1` [Compound 123] showed an IC50 of 102 to 959 nM.
Regarding `Nc1nc2ccc(CNC(=O)c3cccc(NCc4ccccc4)n3)cc2s1` [Compound 263], the IC50 is over 1000 nM.
To `CC(C)NC(=O)c1cccc(C(=O)NCc2ccc3nc(N)sc3c2)n1` [Compound 5] belongs 4 to 97 nM; to `CC(C)NC(=O)c1cccc(C(=O)NCc2cnn(-c3cccnc3)c2)n1` [Compound 141], 4 to 97 nM.
On to `CC(=O)N1CCC(NC(=O)c2cccc(C(=O)NCc3ccc4nc(N)sc4c3)n2)CC1` [Compound 28], for which the IC50 lay within 102 to 959 nM.
Consider `CC(C)NC(=O)c1cccc(C(=O)Nc2cccnc2)n1` [Compound 90], for which the IC50 is > 1000 nM and 1030 to 10000 nM.
`CSc1nccc(N2CCC(NC(=O)c3cccc(C(=O)NCc4ccc(S(C)(=O)=O)cc4)n3)CC2)n1` [Compound 274] showed an IC50 of over 1000 nM.
For `CC(C)CN(C)c1cccc(C(=O)NCc2ccc(S(C)(=O)=O)cc2)n1` [Compound 338], the IC50 is > 1000 nM and 1030 to 10000 nM.
Turning to `COC(=O)[C@H](C)NC(=O)c1cccc(C(=O)NCc2ccc3nc(N)sc3c2)n1` [Compound 75], the IC50 lay in the range of 102 to 959 nM.
Consider `O=C(NCc1cnn(-c2cccc(C(F)(F)F)c2)c1)c1cccc(N2CCCC2)n1` [Compound 343], for which the IC50 was 1030 to 10000 nM and > 1000 nM.
To `CCOC(=O)N1CCC(NC(=O)c2cccc(NCC3CCNCC3)n2)CC1` [Compound 395] belongs over 1000 nM; to `CC(C)NC(=O)c1cccc(C(=O)NCc2cnn(-c3cnc4[nH]cnc4c3)c2)n1` [Compound 219], 4 to 97 nM.
Consider `CCOC(=O)N1CCC(NC(=O)c2cccc(C(=O)NCC(C)C)n2)CC1` [Compound 41], for which the IC50 is over 1000 nM.
To `O=C(NCc1nc2ccccc2s1)c1cccc(-c2nc3ccccc3[nH]2)n1` [Compound 378] belongs 102 to 959 nM.
Consider `C[C@@H](CO)NC(=O)c1cc(-c2cccs2)cc(C(=O)NCc2ccc(S(C)(=O)=O)cc2)n1` [Compound 416], for which the IC50 is > 1000 nM and 1030 to 10000 nM.
On to `CC(C)NC(=O)c1cccc(C(=O)NCc2ccc(N3CCCC3)nc2)n1` [Compound 114], for which the IC50 fell in the range of 102 to 959 nM.
Regarding `CC(C)NC(=O)c1cccc(C(=O)NCc2ccc(-c3ccc(C#N)cc3)nc2)n1` [Compound 179], the IC50 was in the range of 102 to 959 nM.
To `Cc1cc(CNC(=O)c2cccc(C(=O)NC(C)C)n2)nn1C` [Compound 103] belongs 1030 to 10000 nM and > 1000 nM; to `CC(C)NC(=O)c1cccc(C(=O)NCc2cnn(-c3cc(Br)cc(C#N)c3)c2)n1` [Compound 155], 4 to 97 nM; to `CCOC(=O)c1cccc(C(=O)NCc2ccc3nc(N)sc3c2)n1` [Compound 62], over 1000 nM.
To `C[C@@H](CO)NC(=O)c1cc(-c2ccccc2)cc(C(=O)NCc2ccc(S(C)(=O)=O)cc2)n1` [Compound 407] belongs > 1000 nM and 1030 to 10000 nM.
`CC[C@@H](C)NC(=O)c1cccc(C(=O)NCc2ccc3nc(N)sc3c2)n1` [Compound 8] showed an IC50 of 4 to 97 nM.
In the case of `CC(C)NC(=O)c1cccc(C(=O)NCC2CCN(C(=O)OC(C)(C)C)CC2)n1` [Compound 94], the IC50 is 102 to 959 nM.
To `CS(=O)(=O)c1ccc(CNC(=O)c2cccc(-n3ncc4ccccc43)n2)cc1` [Compound 322] belongs 102 to 959 nM; to `CCCNC(=O)c1cccc(C(=O)NCc2ccc3nc(N)sc3c2)n1` [Compound 65], 102 to 959 nM.
`CS(=O)(=O)c1ccc(-n2cc(CNC(=O)c3cccc(-n4cc(I)cn4)n3)cn2)cc1` [Compound 292] returned a concentration for half-maximal inhibition (IC50) of 4 to 97 nM.
To `COc1ccc(F)cc1-c1cccc(C(=O)NCc2ccc(S(C)(=O)=O)cc2)n1` [Compound 329] belongs 102 to 959 nM.
To `CC(C)NC(=O)c1cccc(C(=O)NCc2cncc(-c3ccc(C#N)cc3)c2)n1` [Compound 257] belongs 4 to 97 nM.
`CC(C)NC(=O)c1cccc(C(=O)NCc2ccc(-c3cccc(C#N)c3)cc2)n1` [Compound 194] had an IC50 of 102 to 959 nM.
With `CCOC(=O)N1CCC(NC(=O)c2cccc(C(=O)NCc3ccncc3)n2)CC1` [Compound 42], the IC50 was over 1000 nM.
On to `CC(C)NC(=O)c1cccc(C(=O)NCc2cnn(-c3ccc(F)c(C(F)(F)F)c3)c2)n1` [Compound 150], for which the IC50 is 4 to 97 nM.
As to `CC(=O)Nc1cccc(C(=O)NCc2cnn(-c3cccc(C(F)(F)F)c3)c2)n1` [Compound 353], the IC50 was in the range of 102 to 959 nM.
`CC(C)NC(=O)c1cccc(C(=O)NCc2cccc(-c3ccc(S(C)(=O)=O)cc3)c2)n1` [Compound 192]: the IC50 is 4 to 97 nM.
In the case of `CC(C)NC(=O)c1cccc(C(=O)NCc2ccc3c(c2)OCO3)n1` [Compound 89], the IC50 lay within 102 to 959 nM.
